Test system: gene expression in C. difficile 630Δerm
Assay: RNA-seq, genes differentially expressed in LL-37
Conditions: 2 µg/ml LL-37, BHIS

In the case of `CC[C@H](C)[C@H](NC(=O)[C@H](CCCCN)NC(=O)[C@H](CCC(=O)O)NC(=O)[C@H](CCCCN)NC(=O)[C@H](CO)NC(=O)[C@H](CCCCN)NC(=O)[C@H](CCCNC(=N)N)NC(=O)[C@H](Cc1ccccc1)NC(=O)[C@H](Cc1ccccc1)NC(=O)[C@H](CC(=O)O)NC(=O)CNC(=O)[C@H](CC(C)C)NC(=O)[C@@H](N)CC(C)C)C(=O)NCC(=O)N[C@@H](CCCCN)C(=O)N[C@@H](CCC(=O)O)C(=O)N[C@@H](Cc1ccccc1)C(=O)N[C@@H](CCCCN)C(=O)N[C@@H](CCCNC(=N)N)C(=O)N[C@H](C(=O)N[C@H](C(=O)N[C@@H](CCC(N)=O)C(=O)N[C@@H](CCCNC(=N)N)C(=O)N[C@H](C(=O)N[C@@H](CCCCN)C(=O)N[C@@H](CC(=O)O)C(=O)N[C@@H](Cc1ccccc1)C(=O)N[C@@H](CC(C)C)C(=O)N[C@@H](CCCNC(=N)N)C(=O)N[C@@H](CC(N)=O)C(=O)N[C@@H](CC(C)C)C(=O)N[C@H](C(=O)N1CCC[C@H]1C(=O)N[C@@H](CCCNC(=N)N)C(=O)N[C@H](C(=O)N[C@@H](CCC(=O)O)C(=O)N[C@@H](CO)C(=O)O)[C@@H](C)O)C(C)C)[C@@H](C)CC)C(C)C)[C@@H](C)CC` [LL-37], the “23S_rRNA fold change in LL-37” value was 0.27, the “CD630_00470 (ispD) fold change in LL-37” value was 0.48 and the “CD630_01060 (cwlD) fold change in LL-37” value was 0.43. The “CD630_01250 fold change in LL-37” value was 0.44, the “CD630_01631 fold change in LL-37” value was 0.22 and the “CD630_01930 (groS) fold change in LL-37” value was 0.46. For the same molecule, the “CD630_02910 fold change in LL-37” value was 3.25, the “CD630_03140 fold change in LL-37” value was 0.41 and the “CD630_03240 (cbiM) fold change in LL-37” value was 0.42. For the same molecule, the “CD630_03250 (cbiN) fold change in LL-37” value was 0.50, the “CD630_03260 (cbiQ1) fold change in LL-37” value was 0.41 and the “CD630_03270 (cbiO) fold change in LL-37” value was 0.40. For the same molecule, the “CD630_03580 fold change in LL-37” value was 3.38, the “CD630_03830 fold change in LL-37” value was 2.58 and the “CD630_03901 fold change in LL-37” value was 0.43. The “CD630_04090 fold change in LL-37” value was 0.44, the “CD630_04440 (ortB) fold change in LL-37” value was 2.09 and the “CD630_04670 fold change in LL-37” value was 3.43. For the same molecule, the “CD630_04780 (spaF) fold change in LL-37” value was 3.43, the “CD630_04800 (spaG) fold change in LL-37” value was 2.29 and the “CD630_04890 fold change in LL-37” value was 2.26. The “CD630_04900 fold change in LL-37” value was 4.13, the “CD630_04960 fold change in LL-37” value was 4.13 and the “CD630_04970 fold change in LL-37” value was 3.86. For the same molecule, the “CD630_04980 fold change in LL-37” value was 4.13, the “CD630_05000 fold change in LL-37” value was 3.61 and the “CD630_05060 fold change in LL-37” value was 3.54. For the same molecule, the “CD630_05100 fold change in LL-37” value was 3.07, the “CD630_05101 fold change in LL-37” value was 3.31 and the “CD630_05102 fold change in LL-37” value was 3.35. The “CD630_05103 fold change in LL-37” value was 3.27, the “CD630_05490 fold change in LL-37” value was 4.74 and the “CD630_05500 fold change in LL-37” value was 5.52. For the same molecule, the “CD630_05670 fold change in LL-37” value was 0.44, the “CD630_05770 fold change in LL-37” value was 2.96 and the “CD630_05780 fold change in LL-37” value was 0.47. The “CD630_05790 fold change in LL-37” value was 0.40, the “CD630_06140 fold change in LL-37” value was 0.43 and the “CD630_06240 fold change in LL-37” value was 0.45. The “CD630_07290 (gcvH) fold change in LL-37” value was 2.23, the “CD630_08450 fold change in LL-37” value was 0.40 and the “CD630_08530 (oppB) fold change in LL-37” value was 3.02. The “CD630_08570 (oppF) fold change in LL-37” value was 2.88, the “CD630_09080 fold change in LL-37” value was 0.23 and the “CD630_09170 fold change in LL-37” value was 0.45. The “CD630_09260 fold change in LL-37” value was 2.36, the “CD630_09340 fold change in LL-37” value was 0.39 and the “CD630_09360 fold change in LL-37” value was 0.28. For the same molecule, the “CD630_09950 (serA) fold change in LL-37” value was 0.23, the “CD630_09960 fold change in LL-37” value was 0.24 and the “CD630_10280 fold change in LL-37” value was 0.48. For the same molecule, the “CD630_10540 (bcd2) fold change in LL-37” value was 2.94, the “CD630_10550 (etfB3) fold change in LL-37” value was 3.07 and the “CD630_10560 (etfA3) fold change in LL-37” value was 3.22. The “CD630_10570 (crt2) fold change in LL-37” value was 2.97, the “CD630_10580 (hbd) fold change in LL-37” value was 3.51 and the “CD630_10590 (thlA1) fold change in LL-37” value was 3.56. For the same molecule, the “CD630_10850 fold change in LL-37” value was 2.17, the “CD630_10860 fold change in LL-37” value was 2.54 and the “CD630_10980 fold change in LL-37” value was 2.17. For the same molecule, the “CD630_11261 fold change in LL-37” value was 0.42, the “CD630_11540 fold change in LL-37” value was 0.40 and the “CD630_11710 (etfB4) fold change in LL-37” value was 0.45. For the same molecule, the “CD630_12382 fold change in LL-37” value was 5.60, the “CD630_12400 (vanZ) fold change in LL-37” value was 28.43 and the “CD630_12700 fold change in LL-37” value was 0.45. For the same molecule, the “CD630_13450 fold change in LL-37” value was 0.46, the “CD630_13460 fold change in LL-37” value was 0.50 and the “CD630_13610 fold change in LL-37” value was 0.37. The “CD630_13640 fold change in LL-37” value was 0.40, the “CD630_13720 fold change in LL-37” value was 0.48 and the “CD630_13900 fold change in LL-37” value was 2.35. For the same molecule, the “CD630_14240 fold change in LL-37” value was 2.97, the “CD630_14890 (metN) fold change in LL-37” value was 0.32 and the “CD630_14900 (met I) fold change in LL-37” value was 0.32. For the same molecule, the “CD630_15100 fold change in LL-37” value was 2.24, the “CD630_15120 (panC) fold change in LL-37” value was 2.15 and the “CD630_15470 (hisZ) fold change in LL-37” value was 2.92. For the same molecule, the “CD630_15490 (hisC) fold change in LL-37” value was 2.86, the “CD630_15500 (hisB) fold change in LL-37” value was 3.12 and the “CD630_15510 (hisH) fold change in LL-37” value was 3.29. The “CD630_15520 (hisA) fold change in LL-37” value was 2.80, the “CD630_15540 (hisI) fold change in LL-37” value was 3.10 and the “CD630_15560 fold change in LL-37” value was 2.16. For the same molecule, the “CD630_15660 (ilvB) fold change in LL-37” value was 2.01, the “CD630_15800 (hom2) fold change in LL-37” value was 0.49 and the “CD630_16070 fold change in LL-37” value was 30.25. For the same molecule, the “CD630_16090 fold change in LL-37” value was 30.62, the “CD630_16100 fold change in LL-37” value was 64.45 and the “CD630_16110 fold change in LL-37” value was 34.77. The “CD630_16120 fold change in LL-37” value was 3.18, the “CD630_16130 (cotA) fold change in LL-37” value was 2.18 and the “CD630_16170 (clnR) fold change in LL-37” value was 186.82. For the same molecule, the “CD630_16180 (clnA) fold change in LL-37” value was 202.99, the “CD630_16190 (clnB) fold change in LL-37” value was 192.16 and the “CD630_16200 fold change in LL-37” value was 2.15. For the same molecule, the “CD630_16310 (sodA) fold change in LL-37” value was 2.59, the “CD630_16590 fold change in LL-37” value was 2.69 and the “CD630_16632 fold change in LL-37” value was 0.32. For the same molecule, the “CD630_16740 fold change in LL-37” value was 2.47, the “CD630_16990 (ribE) fold change in LL-37” value was 4.23 and the “CD630_17000 (ribD) fold change in LL-37” value was 3.65. For the same molecule, the “CD630_17021 (thiS) fold change in LL-37” value was 2.41, the “CD630_17151 fold change in LL-37” value was 2.24 and the “CD630_17170 fold change in LL-37” value was 2.07. For the same molecule, the “CD630_17452 fold change in LL-37” value was 0.34, the “CD630_17540 fold change in LL-37” value was 0.42 and the “CD630_17880 fold change in LL-37” value was 2.48. For the same molecule, the “CD630_18020 fold change in LL-37” value was 3.05, the “CD630_18270 fold change in LL-37” value was 0.47 and the “CD630_18470 fold change in LL-37” value was 0.36. For the same molecule, the “CD630_18860 fold change in LL-37” value was 0.41, the “CD630_18870 (csfU) fold change in LL-37” value was 5.34 and the “CD630_18880 (rsiU) fold change in LL-37” value was 3.69.

— paper PMC6117091, “The C. difficile clnRAB operon initiates adaptations to the host environment in response to LL-37” (PLoS Pathogens, 2018)
